Data on one compound can be found in patent publication US20090011007A1, “Pharmaceutical Compositions Containing Mixtures of Polymers and Active Agents Poorly Soluble in Water” (Evonik Roehm GmbH, priority 2006, published 2009).

By solubility is commonly meant the dissolved amount per volume that the medium holds.

Values after ≈ are worked out from the molar mass of the structure shown.

Series [1] is described as follows: Determination of the solubility of felodipine at pH 1.2 (orbital shaker, 24 hours, SGFsp, HPLC). The series is classed as physicochemical. As to conditions: SGFsp medium buffered to pH 1.2, simulated gastric fluid, thermodynamic from solid, SGFsp pH 1.2, 37° C., 10 mg in 20 ml, read-out: solubility of felodipine alone at pH 1.2. As for the experimental part:
Felodipine has a solubility in water of <1 mg/l […]. The solubility for felodipine was determined for comparison in a medium buffered to pH 1.2 (SGFsp pH 1.2). For this purpose, 10 mg were kept in motion at 37° C. on an orbital shaker in 20 ml of medium for 24 hours. The concentration was determined by means of HPLC. For felodipine alone, without inventive formulation, a solubility of 0.5 mg/l was determined.

The conditions of series [2]: cited from earlier work.

Regarding `CCOC(=O)C1=C(C)NC(C)=C(C(=O)OC)C1c1cccc(Cl)c1Cl` (centres unmarked) [felodipine alone, felodipine], the solubility at 24 h in series [1] was 0.5 µg/mL (≈ 1.3 µM). Moreover, the solubility in water in series [2] was < 1 µg/mL.
